Reference: ChEMBL document CHEMBL1155851, “Synthesis of some novel imidazole-based dicationic carbazolophanes as potential antibacterials” (2008)
Converted amounts (≈) assume the structure as drawn. The source made the active and inactive calls. The calls are words filed in the database; no cut-off is given here.

Tests used:
Salmonella typhi = test: Antimicrobial activity against Salmonella typhi; assay type: functional, Salmonella enterica subsp. enterica serovar Typhi; conditions: Salmonella enterica
Proteus mirabilis = test: Antimicrobial activity against Proteus mirabilis; assay type: functional
Pseudomonas aeruginosa = test: Antimicrobial activity against Pseudomonas aeruginosa; assay type: functional
Proteus vulgaris = test: Antimicrobial activity against Proteus vulgaris; assay type: functional
Staphylococcus aureus [1] = test: Antimicrobial activity against Staphylococcus aureus; assay type: functional
Staphylococcus aureus [2] = tested on: Staphylococcus aureus

`CCn1c2ccc3cc2c2cc(ccc21)C(=O)c1ccc(cc1)Cn1cc[n+](c1)Cc1cc([N+](=O)[O-])cc(c1O)C[n+]1ccn(c1)Cc1ccc(cc1)C3=O.[Br-].[Br-]` was tested, and the MIC (Salmonella typhi) was 20 µg/mL, the MIC (Proteus mirabilis) was 20 µg/mL and the MIC (Pseudomonas aeruginosa) was 35 µg/mL. The MIC (Proteus vulgaris) was 30 µg/mL and the MIC (Staphylococcus aureus [1]) was 20 µg/mL.
In the case of `CCn1c2ccc3cc2c2cc(ccc21)C(=O)c1ccc(cc1)Cn1c[n+](c2ccccc21)Cc1ccc(cc1)-c1cccc(c1)-c1ccc(cc1)C[n+]1cn(c2ccccc21)Cc1ccc(cc1)C3=O.[Br-].[Br-]`, the MIC (Salmonella typhi) is reported as 45 µg/mL, the MIC (Proteus mirabilis) is reported as 50 µg/mL and the MIC (Pseudomonas aeruginosa) is reported as 65 µg/mL. It also gave an MIC (Proteus vulgaris) of 50 µg/mL and an MIC (Staphylococcus aureus [1]) of 45 µg/mL.
`CCn1c2ccc3cc2c2cc(ccc21)C(=O)c1ccc(cc1)Cn1c[n+](c2ccccc21)Cc1cccc(n1)C[n+]1cn(c2ccccc21)Cc1ccc(cc1)C3=O.[Br-].[Br-]` showed an MIC (Salmonella typhi) of 15 µg/mL, an MIC (Proteus mirabilis) of 10 µg/mL and an MIC (Pseudomonas aeruginosa) of 20 µg/mL. It also gave an MIC (Proteus vulgaris) of 15 µg/mL and an MIC (Staphylococcus aureus [1]) of 8 µg/mL.
With `CCn1c2ccc3cc2c2cc(ccc21)C(=O)c1ccc(cc1)Cn1c[n+](c2ccccc21)Cc1cc([N+](=O)[O-])cc(c1O)C[n+]1cn(c2ccccc21)Cc1ccc(cc1)C3=O.[Br-].[Br-]` the MIC (Salmonella typhi) was 15 µg/mL, the MIC (Proteus mirabilis) was 30 µg/mL and the MIC (Pseudomonas aeruginosa) was 30 µg/mL. For the same molecule, the MIC (Proteus vulgaris) was 35 µg/mL and the MIC (Staphylococcus aureus [1]) was 20 µg/mL.
`CCn1c2ccc3cc2c2cc(ccc21)C(=O)c1ccc(cc1)Cn1c[n+](c2ccccc21)Cc1ccc(cc1)-c1cccc(c1C(=O)O)-c1ccc(cc1)C[n+]1cn(c2ccccc21)Cc1ccc(cc1)C3=O.[Br-].[Br-]` was tested, and the MIC (Staphylococcus aureus [2]) was “inactive”, the MIC (Salmonella typhi) was 50 µg/mL and the MIC (Proteus mirabilis) was 55 µg/mL. For the same molecule, the MIC (Pseudomonas aeruginosa) was 70 µg/mL and the MIC (Proteus vulgaris) was 60 µg/mL.
In the case of `CCn1c2ccc3cc2c2cc(ccc21)C(=O)c1ccc(cc1)Cn1cc[n+](c1)Cc1ccc(cc1)-c1cccc(c1)-c1ccc(cc1)C[n+]1ccn(c1)Cc1ccc(cc1)C3=O.[Br-].[Br-]`, the MIC (Salmonella typhi) is reported as 55 µg/mL, the MIC (Proteus mirabilis) is reported as 75 µg/mL and the MIC (Pseudomonas aeruginosa) is reported as 75 µg/mL. The MIC (Proteus vulgaris) was 70 µg/mL and the MIC (Staphylococcus aureus [1]) was 75 µg/mL.
Work on `CCn1c2ccc3cc2c2cc(ccc21)C(=O)c1ccc(cc1)Cn1c[n+](c2ccccc21)Cc1ccc(cc1)C(=O)c1ccc2c(c1)c1cc(ccc1n2CC)C(=O)c1ccc(cc1)C[n+]1cn(c2ccccc21)Cc1ccc(cc1)C3=O.[Br-].[Br-]` yielded an MIC (Salmonella typhi) of 25 µg/mL, an MIC (Proteus mirabilis) of 30 µg/mL and an MIC (Pseudomonas aeruginosa) of 35 µg/mL. The MIC (Proteus vulgaris) was 30 µg/mL and the MIC (Staphylococcus aureus [1]) was 26 µg/mL.
`CCn1c2ccc3cc2c2cc(ccc21)C(=O)c1ccc(cc1)Cn1c[n+](c2ccccc21)Cc1cc(OC)c(cc1OC)C[n+]1cn(c2ccccc21)Cc1ccc(cc1)C3=O.[Br-].[Br-]` showed an MIC (Salmonella typhi) of 40 µg/mL, an MIC (Proteus mirabilis) of 55 µg/mL and an MIC (Pseudomonas aeruginosa) of 70 µg/mL. For the same molecule, the MIC (Proteus vulgaris) was 45 µg/mL.
Work on `CCn1c2ccc3cc2c2cc(ccc21)C(=O)c1ccc(cc1)Cn1cc[n+](c1)Cc1ccc(cc1)C(=O)c1ccc2c(c1)c1cc(ccc1n2CC)C(=O)c1ccc(cc1)C[n+]1ccn(c1)Cc1ccc(cc1)C3=O.[Br-].[Br-]` yielded an MIC (Salmonella typhi) of 25 µg/mL, an MIC (Proteus mirabilis) of 35 µg/mL and an MIC (Pseudomonas aeruginosa) of 55 µg/mL. It also gave an MIC (Proteus vulgaris) of 40 µg/mL and an MIC (Staphylococcus aureus [1]) of 25 µg/mL.
`CN(C)[C@@H]1C(O)=C(C(N)=O)C(=O)[C@@]2(O)C(O)=C3C(=O)c4c(O)cccc4[C@@](C)(O)[C@H]3C[C@@H]12` [TETRACYCLINE] showed an MIC (Salmonella typhi) of 15 µg/mL (≈ 33.8 µM), an MIC (Proteus mirabilis) of 20 µg/mL (≈ 45 µM) and an MIC (Pseudomonas aeruginosa) of 35 µg/mL (≈ 78.8 µM). For the same molecule, the MIC (Proteus vulgaris) was 35 µg/mL (≈ 78.8 µM) and the MIC (Staphylococcus aureus [1]) was 20 µg/mL (≈ 45 µM).
In the case of `CCn1c2ccc3cc2c2cc(ccc21)C(=O)c1ccc(cc1)Cn1cc[n+](c1)Cc1ccc(cc1)-c1cccc(c1C(=O)O)-c1ccc(cc1)C[n+]1ccn(c1)Cc1ccc(cc1)C3=O.[Br-].[Br-]`, the MIC (Salmonella typhi) is reported as 35 µg/mL, the MIC (Proteus mirabilis) is reported as 50 µg/mL and the MIC (Pseudomonas aeruginosa) is reported as 80 µg/mL. It also gave an MIC (Proteus vulgaris) of 65 µg/mL and an MIC (Staphylococcus aureus [1]) of 35 µg/mL.
With `CCn1c2ccc3cc2c2cc(ccc21)C(=O)c1ccc(cc1)Cn1cc[n+](c1)Cc1cccc(n1)C[n+]1ccn(c1)Cc1ccc(cc1)C3=O.[Br-].[Br-]` the MIC (Salmonella typhi) was 15 µg/mL, the MIC (Proteus mirabilis) was 20 µg/mL and the MIC (Pseudomonas aeruginosa) was 30 µg/mL. For the same molecule, the MIC (Proteus vulgaris) was 25 µg/mL and the MIC (Staphylococcus aureus [1]) was 12 µg/mL.
